Data as given in PMC7254386, “Antibacterial PEGylated Solid Lipid Microparticles for Cosmeceutical Purpose: Formulation, Characterization, and Efficacy Evaluation” (Materials, 2020).

Assays:
S. aureus = conditions: LB-agar as growth medium; cited from earlier work
[1] = Preliminary RSV solubility tests in buffer solutions; type: physicochemical; conditions: 32 °C, mean ± SE (n = 3)
Protocol: […] […] The suspension was kept in a thermostatic water bath (Heidolph MR3001K Hotplate Stirrer with Heidolph EXT3001 Temperature Probe, Heidolph Instruments, Schwabach, Germany) at 32 °C and stirred for 120 min. The samples were then centrifuged for 15 min at 15.000 rpm (mySPIN™ 12 Mini Centrifuge, Thermo Fisher Scientific, Waltham, MA, USA), to remove any precipitate. The supernatant was collected, diluted in methanol, and quantified by a UV-Vis spectrophotometer. The experiments were performed in triplicate.

[2] = RSV dissolution in different liquid lipophilic excipients; type: physicochemical
Excerpt: Lipophilic excipients must have peculiar features from a physicochemical perspective (i.e., solid at room temperature, chemically inert, high capacity to incorporate drugs, and capable of protecting the latter from physicochemical degradation phenomena) and a biological point of view (i.e., biocompatible, neither carcinogenic or teratogens nor allergenic, and poorly oxidizable) to use them for generating both pharmaceutical and cosmetic formulations. Here, 1-Hexadecanol (EXA) as non-toxic, biocompatible, biodegradable long-chain fatty alcohol was chosen as a solid lipid, as its surfactant characteristic allows this excipient to behave as an emulsifier agent, avoiding the need for further surfactant addition usually required for SLMs preparation using melt dispersion method. In addition, EXA was shown a certain effectiveness in the inhibition of S. aureus growth.

[3] = parameters: method as in PMID 28659908; conditions: cited from earlier work

Oc1ccc(/C=C/c2cc(O)cc(O)c2)cc1 [RSV, 3,4′, 5-trihydroxy-trans-stilbene]
Minimal Inhibitory Concentration (MIC) (S. aureus): 1000 µg/mL
solubility at 120 min ([1]; PBS buffer solution with BSA 5% w/v, pH 7.4, thermodynamic from solid, PBS + BSA 5%): 442 ± 35 µg/mL
solubility at 120 min ([1]; PBS buffer solution with DMSO 10% v/v, pH 7.4, aqueous with cosolvent or surfactant or cyclodextrin, thermodynamic from solid, PBS + DMSO 10%): 194 ± 10 µg/mL
solubility at 120 min ([1]; PBS buffer solution with α-CD 0.5% w/v, pH 7.4, aqueous with cosolvent or surfactant or cyclodextrin, thermodynamic from solid, PBS + α-CD 0.5%): 153 ± 8 µg/mL
solubility at 120 min ([1]; PBS buffer solution with β-CD 2% w/v, pH 7.4, aqueous with cosolvent or surfactant or cyclodextrin, thermodynamic from solid, PBS + β-CD 2%): 886 ± 11 µg/mL
solubility at 120 min ([1]; citrate buffer solution with β-CD 2% w/v, aqueous with cosolvent or surfactant or cyclodextrin, thermodynamic from solid, Citrate buffer (pH 6.2) + β-CD 2%): 803 ± 3 µg/mL
RSV dissolution (appearance) ([2]; Gelucire 62/05, RSV 5% w/w): Opalescent
RSV dissolution (appearance) ([2]; Gelucire 62/05, RSV 10% w/w): Opalescent
RSV dissolution (appearance) ([2]; Gelucire 62/05, RSV 15% w/w): Opalescent
RSV dissolution (appearance) ([2]; Glyceryl Monostearate, RSV 5% w/w): Opalescent
RSV dissolution (appearance) ([2]; Glyceryl Monostearate, RSV 10% w/w): Opalescent
RSV dissolution (appearance) ([2]; Glyceryl Monostearate, RSV 15% w/w): Opalescent
RSV dissolution (appearance) ([2]; Isostearyl Isostearate, RSV 5% w/w): Opalescent
RSV dissolution (appearance) ([2]; Isostearyl Isostearate, RSV 10% w/w): Opalescent
RSV dissolution (appearance) ([2]; Isostearyl Isostearate, RSV 15% w/w): Opalescent
RSV dissolution (appearance) ([2]; Labrafil M-1944, RSV 5% w/w): Opalescent
RSV dissolution (appearance) ([2]; Labrafil M-1944, RSV 10% w/w): Opalescent
RSV dissolution (appearance) ([2]; Labrafil M-1944, RSV 15% w/w): Opalescent
RSV dissolution (appearance) ([2]; Labrafil M-2130, RSV 5% w/w): Opalescent
RSV dissolution (appearance) ([2]; Labrafil M-2130, RSV 10% w/w): Opalescent
RSV dissolution (appearance) ([2]; Labrafil M-2130, RSV 15% w/w): Opalescent
RSV dissolution (appearance) ([2]; Labrasol, RSV 5% w/w): Clear
RSV dissolution (appearance) ([2]; Labrasol, RSV 10% w/w): Clear
RSV dissolution (appearance) ([2]; Labrasol, RSV 15% w/w): Slightly Opalescent
RSV dissolution (appearance) ([2]; Soy Lecithin, RSV 5% w/w): Opalescent
RSV dissolution (appearance) ([2]; Soy Lecithin, RSV 10% w/w): Opalescent
RSV dissolution (appearance) ([2]; Soy Lecithin, RSV 15% w/w): Opalescent
RSV dissolution (appearance) ([2]; Tefose 1500, RSV 10% w/w): Slightly Opalescent
RSV dissolution (appearance) ([2]; Tefose 1500, RSV 15% w/w): Opalescent
amount of RSV solubilized by Labrasol ([2]; liquid lipid Labrasol): up to 10 % w/w
partition coefficient (LogP) [3]: 3.09
